Read-outs that look alike come from different tables or passages of the source.
Key:
[1] = tested on: Murine L1210 leukemia cells; experiment: L1210 leukemia cell growth inhibition; type: cell-based; conditions: for anti-leukemic activity (in words): L1210; for IC50: L1210, 48 hr, read-out: Antileukemic Activity (IC50, 48 hr); for % Control, L1210 growth: Compound II 10 μM
[2] = tested on: herpes simplex I, KOS strain; experiment: Inhibition of herpes simplex virus replication in CV-1 cells (plaque assay); type: cell-based; conditions: for anti-herpetic activity (in words): herpes simplex I; for % Control, Herpes replication: Compound II 100 μM
[3] = tested on: vesicular stomatitis virus; experiment: microbe, parasite or virus in culture; type: cell-based
[4] = Iron formation (binding) constant; type: physicochemical; conditions: estimated iron binding constant
Description: When the compounds were ranked according to their estimated iron binding constants (Table I), the order generally paralleled both the anti-leukemicand anti-herpetic activities of the compounds. […] Furthermore, the effects of the ligands could be prevented by addition of ferric chloride, supporting the idea that iron chelation is the source of activity.

[5] = Partition between n-octanol and phosphate buffered saline; type: physicochemical; conditions: PBS pH 7.40 / n-octanol; for logD at 12 h: pH 7.4, 27° C., read-out: Conc. n-Octanol / Conc. PBS (partition coefficient) (converted)
Experimental: The partition equilibrium values for octanol and phosphate buffered saline were determined for certain of the test compounds. The compounds were added in nitrogen saturated methanol at the same concentration to three acid washed test tubes and the alcohol evaporated leaving a thin film of compounds coating the interior of the tube. Next, 5 ml each of degassed phosphate buffered saline (pH 7.4) and n-octanol were added. The tubes were sealed with Teflon caps under argon and rotated at 6 rpm at 27° C. for 12 hours. […] Absorbance values were compared to Beer's Lambert's plots generated for each compound.

Plasmodium falciparum = experiment: In vitro growth of Plasmodium falciparum (candle jar technique); type: cell-based
Experimental: The anti-malarial activity of the compounds listed in Table IV were determined using the method of Scheibel et al, Mol. Pharmacol., 20, pp. 218-223 (1981).
In this study, Plasmodium falciparum were grown in petri dishes using the conventional candle jar technique (Jensen, J. B., and W. Trager. Plasmodium falciparum in culture; use of outdated erythrocytes and description of the candle jar method. J. Parasitol. Vol. 63, pp. 883-886 (1977)). Parasites were grown for 24 hours in 1.5 ml petri dishes in a candle jar before exposure to the chelators of interest. The Plasmodium falciparum were next exposed to various concentrations of the ligands, and ED50 values determined after two and three days of exposure.

[6] = prior art statement; cited from earlier work
CV-1 monkey kidney cells = experiment: Toxicity to resting monkey kidney cell monolayers; type: cell-based; conditions: 100 μM, 24 hours
L1210 cells = conditions: Porter et al, read-out: 50% growth-inhibitory dose; cited from earlier work
[7] = tested on: herpes virus (same herpes strain); conditions: vero monkey kidney cell line, DeClercq, read-out: IC50 anti-herpetic; cited from earlier work
[8] = CV-1, read-out: Antiviral Activity Herpes simplex I (IC50)
[9] = Vesicular stomatitis virus, CV-1, read-out: Antiviral Activity Vesicular stomatitis (IC50)
[10] = CV-1 cells, read-out: Antiviral Activity Herpes simplex I (IC50)
[11] = 48 h, exposure for 2 days, read-out: Concentration required to reduce in vitro growth of P. falciparum 50% (ED50), Day 2
[12] = 72 h, exposure for 3 days, read-out: Concentration required to reduce in vitro growth of P. falciparum 50% (ED50), Day 3

Row | Compound | IC50 ([1]; Mus musculus) | IC50 [3, 9] | IC50 [2, 10] | Gt ° (G° transfer) [5] | logD at 12 h [5] | IC50 (Plasmodium falciparum; [11]) | IC50 (Plasmodium falciparum; [12]) | further results
1 | NCCCCN(CCCN)Cc1ccccc1 | 4000 µM | 1000 µM |  |  |  |  |  | anti-leukemic activity (in words) [1]: virtually inactive; IC50 [2, 8]: 1000 µM; anti-herpetic activity (in words) [2]: virtually inactive; Formation Constant [4]: 0 moles/1
2 | C[C@H]1OC(c2ccccc2O)=N[C@@H]1C(=O)N(CCCCNC(=O)c1cccc(O)c1O)CCCNC(=O)c1cccc(O)c1O (relative stereo) [Parabactin, N-[3-(2,3-dihydroxybenzamido)propyl]-N-[4-(2,3-dihydroxybenzamino)-butyryl]-2-(2-hydroxyphenyl)trans-5-methyl-oxazoline-4-carboxamide] | 2 µM |  | 0.4 µM | -2.06 K cal M-I | 1.51 | 2.6 µM | 2.3 µM | times more active as an antineoplastic than DHBA ([1]; ratio vs DHBA): 10^3; iron formation constant of 1:1 metal complex [6]: ~10^48 moles/l
3 | C[C@H]1OC(c2cccc(O)c2O)=N[C@@H]1C(=O)NCCCN(CCCNC(=O)c1cccc(O)c1O)C(=O)[C@H]1N=C(c2cccc(O)c2O)O[C@@H]1C (relative stereo) [Vibrobactin, N-[3-(2,3-(dihydrozybenzamido)propyl]-1,3-bis(2,3-dihydroxyphenyl)-trans-5-methyl-2-oxazoline-4-carbonamido]propane] | 2 µM |  |  |  |  | 4.5 µM | 1.8 µM | 
4 | O=C(NCCCCNCCCNC(=O)c1cccc(O)c1O)c1cccc(O)c1O [Compound II, N^1,N^8-bis(2,3-dihydroxybenzoyl)-spermidine] | 7 µM | 1000 µM | 32 µM | -0.04 K cal M-I | -0.0132 | 4.5 µM | 3.7 µM | % Control, L1210 growth ([1]; FeCl3 0 μM): 23 % Control; % Control, L1210 growth ([1]; FeCl3 4 μM): 64 % Control; % Control, L1210 growth ([1]; FeCl3 8 μM): 96 % Control; % Control, L1210 growth ([1]; FeCl3 12 μM): 104 % Control; anti-leukemic activity on inclusion of exogenous iron in the incubation media ([1]; ferric chloride added): fully attenuated; % Control, Herpes replication ([2]; FeCl3 0 μM): 0 % Control; % Control, Herpes replication ([2]; FeCl3 9 μM): 20 % Control; % Control, Herpes replication ([2]; FeCl3 19 μM): 53 % Control; % Control, Herpes replication ([2]; FeCl3 38 μM): 138 % Control; anti-herpetic activity on inclusion of exogenous iron in the incubation media ([2]; ferric chloride added, herpes replication assay): fully attenuated; growth of resting cell monolayers after treatment and replacement in drug-free media (CV-1 monkey kidney cells): identical to that of untreated cells; IC50 (L1210 cells): 10 µM
5 | O=C(O)c1cccc(O)c1O [DHBA, 2,3-dihydroxybenzoic acid] | 2800 µM | 1000 µM |  | +1.57 K cal M-I | -1.15 |  |  | anti-leukemic activity (in words) [1]: minimal activity; IC50 [2, 8]: 1000 µM; anti-herpetic activity (in words) [2]: minimal activity
6 | Nc1nc(=O)n([C@@H]2O[C@H](CO)[C@@H](O)[C@@H]2F)cc1I [FIAC, 2-fluoro-5-iodo-I-B-D-arabinofuranosylcytosine] |  |  |  |  |  |  |  | IC50 [7]: 0.6 µM
7 | O=C(NCCCCN(CCCNC(=O)c1cccc(O)c1O)C(=O)CCCNC(=O)c1cccc(O)c1O)c1cccc(O)c1O [GABA, N^1,N^8-bis(2,3-dihydroxybenzoyl)-N^4-(4-[2,3-dihydrozybenzamido]-butyryl) spermidine] | 2 µM | 1000 µM | 18 µM |  |  | 5.1 µM | 4.3 µM | 
8 | C[C@@H](O)[C@H](N)C(=O)N(CCCCNC(=O)c1cccc(O)c1O)CCCNC(=O)c1cccc(O)c1O [N^1,N^8-bis(2,3-dihydroxybenzoyl)-N^4-threonyl-spermidine] |  |  | 55 µM |  |  |  |  | IC50 [1]: 14 µM; IC50 ([3]; estimated by methyl cellulose disk overlay assay, read-out: Antiviral Activity Vesicular stomatitis (IC50)): 1000 µM
9 | Nc1nc2c(ncn2COCCO)c(=O)[nH]1 [acyclovir] |  |  |  |  |  |  |  | IC50 [7]: 40 µM

From patent US5496841A, “Anti-neoplastic, anti-viral and ribonucleotide reductase activity affecting pharmaceutical compositions and method of treatment” (University of Florida Research Foundation, Inc., priority 1995, dated 1996)
